These results are taken from article PMC11431997, “Baicalin Inhibits FIPV Infection In Vitro by Modulating the PI3K-AKT Pathway and Apoptosis Pathway” (International Journal of Molecular Sciences, 2024).

The test system of experiment [1] is FIPV (BJ-01). Nature of the experiment: Impact of the compound on FIPV replication (compound added after infection, CCK-8). It is filed as cell-based, feline infectious peritonitis virus. The method, then:
According to previous methods, CRFK cells were seeded in 96-well cell culture plates at a density of 1 × 10^4 cells/well and cultured at 37 °C in 5% CO2 until the cell density was greater than 90%. Then, the medium was discarded, and the cells were washed twice with PBS. FIPV was first added into 96-well cell culture plates at 100 μL/well then incubated at 37 °C and 5% CO2 for 1, 2, 4, 6, 8, 10, 12, and 14 h, respectively. After that, the viral solution was discarded and washed with PBS twice and then the compound was added at 100 μL/well and incubated at 37 °C and 5% CO2 (at the same time, a cell control group with only 100 μL of MM and a viral control group with only 100 μL of FIPV were added). There were 3 replicate wells for each compound and group. After the CPE of the viral control group reached more than 80%, the liquid in the culture plate was removed and washed twice with PBS. Afterwards, the IR of the compounds against the virus was computed according to the directions of the Cell Counting Kit-8.

The subject of experiment [2] is FIPV (BJ-01). Nature of the experiment: Direct inactivation of FIPV (compound pre-mixed with virus, CCK-8). It counts as cell-based, feline infectious peritonitis virus. The method, then: According to previous methods, CRFK cells were seeded in 96-well cell culture plates at a density of 1 × 10^4 cells/well and cultured at 37 °C in 5% CO2 until the cell density was greater than 90%. Then, the medium was discarded, and the cells were washed twice with PBS. The compound was mixed with FIPV in the ratio of 1:1 and incubated at 37 °C and 5% CO2 for 30, 60, 90, 120, and 150 min, respectively; then, the mixture of different incubation durations were added into 96-well cell culture plates at 100 μL/well and incubated at 37 °C and 5% CO2, respectively (at the same time, a cell control group with only 100 μL of MM and a viral control group with only 100 μL of FIPV were added). There were 3 replicate wells for each compound and group. After the CPE of the viral control group reached more than 80%, the liquid in the culture plate was removed and washed twice with PBS. Afterwards, the IR of the compounds against the virus was computed according to the directions of the Cell Counting Kit-8.

Experiment [3] has as its system FIPV-infected CRFK cells. Nature of the experiment: FIPV-induced apoptosis, Annexin V-FITC/PI assay. It is filed as cell-based, feline. The note with it: baicalin-treated FIPV-infected CRFK cells, 24 h after infection, p < 0.05. The method, then: CRFK cells were seeded in 96-well cell culture plates at a density of 1 × 10^4 cells/well and cultured at 37 °C in 5% CO2 until the cell density was greater than 90%. After the cells were washed twice with PBS, 50 μL of test compound and 50 μL of FIPV were added to each well simultaneously (at the same time, a cell control group with only 100 μL of MM and a viral control group with only 100 μL of FIPV were added). Three replicate wells were used for each group. […] Then, apoptosis was detected according to the instructions of the Annexin V-FITC/PI Apoptosis Detection Kit (MCE, USA). The results were observed using a fluorescence inverted microscope, and the fluorescence intensity was analyzed using ImageJ.

The subject of experiment [4] is FIPV (BJ-01). Nature of the experiment: Cellular viral load by qPCR (FIPV-N gene). It counts as cell-based, feline infectious peritonitis virus. As for the experimental part: CRFK cells were seeded in a 96-well cell culture plate at a density of 1 × 10^4 cells/well and cultured at 37 °C in 5% CO2 until the cell density was greater than 90%. After the cells were washed twice with PBS, 50 μL of compound and 50 μL of FIPV were added to each well simultaneously, and the plates were incubated at 37 °C and 5% CO2 for 12, 24, 36, 48, 60, and 72 h (at the same time, a cell control group with only 100 μL of MM and a viral control group with only 100 μL of FIPV were added). There were 3 replicate wells for each group and incubation time. After the liquid in the plate was discarded, the cells were washed twice with PBS. Then, the cells were digested by adding tryptic digest at 30 μL/well, the cell suspension was collected, and the cell precipitates were collected by centrifugation at 3000 rpm for 1 min. Total cellular RNA was extracted after the cell precipitates were resuspended in PBS according to the instructions of the FastPure Viral DNA/RNA Mini Kit Pro (Vazyme, Nanjing, China). Then, reverse transcription was performed using HiScript IV RT SuperMix for qPCR (+gDNA wiper) (Vazyme, Nanjing, China). The sequences of the primers used for the detection of the FIPV-N (GenBank: MK840958.1) were […] (F: 5′→3′) and […] (R: 5′→3′). The sequences of the primers used for the detection of the GAPDH genes were […] (F: 5′→3′) and […] (R: 5′→3′). […]
For orientation: In qPCR the cycle at which signal appears reflects the starting amount.

Molecules are shown by their SMILES.

On to `O=C(O)[C@H]1O[C@@H](Oc2cc3oc(-c4ccccc4)cc(=O)c3c(O)c2O)[C@H](O)[C@@H](O)[C@@H]1O` [Baicalin], for which the results for the “inhibition rate on FIPV (replication blocking)” value in experiment [1] (baicalin added after 10 h of infection) and in experiment [1] (baicalin added within 8 h of FIPV infection of CRFK cells) were “significantly reduced” and “more than 50%”, respectively. Moreover, the “inhibition rate on FIPV (direct inactivation)” value is listed as approximately 100% in experiment [2] (150 min of co-culture of baicalin with FIPV) and “more than 50%” in experiment [2] (baicalin co-cultured with FIPV 30-150 min before addition to CRFK cells, all times). Further, the “fluorescence intensity per unit area of cells (early apoptosis, green fluorescence)” value in experiment [3] is reported as “significantly lower”. Moreover, the “FIPV-N gene copy number” value in experiment [4] (48 h compared with 36 h of baicalin treatment, p < 0.05) is recorded as “significantly decreased”. Besides, in experiment [4] (FIPV-infected CRFK cells, qPCR at 12-72 h), the “time of peak FIPV-N gene copy number after baicalin treatment” value is listed as 36 h.
